Marks after values point to notes of the source that are not given here.
Columns and labels:
[1] = tested on: acute, open tibial shaft fractures; experiment: Phase II clinical study of I-040202 in tibial shaft fractures; type: in vivo, patients; settings: Intent-to-Treat
From the text: This was a Phase II, prospective, randomized, controlled, open-label (dose-blinded), parallel-group, multi-center clinical study of the efficacy and safety of TGplPTH1-34 in a matrix made of fibrin (I-040202) in patients with acute, open tibial shaft fractures. The supplemented matrix was applied directly to the fracture site in the form of a paste. A total of 200 patients were randomized and treated in 31 centers across Europe.
The study consisted of four study groups: one control group using standard of care (SoC) which included intramedullary nailing and soft tissue management, and three treatment groups using 4 mL of I-040202 containing TGplPTH1-34 at concentrations of 0.133, 0.4 and 1.0 mg/mL fibrin matrix respectively (different concentrations of TGplPTH1-34), as an adjunct to SoC. Patients followed up clinically and radiologically on a monthly basis until 6 months post-surgery, and thereafter at 9 and 12 months post-surgery.
The primary endpoint was the proportion of patients who had fracture healing at 6 months as assessed by the investigator using radiographic and clinical parameters. Three doses of I-040202 in combination with SoC were compared against SoC alone.

[2] = tested on: 1 cm segmental tibial defect; experiment: Sheep tibial defect model, supplemented fibrin matrix with TCP granules; type: in vivo
Protocol: The fibrin matrix was formed starting from the TISSEEL® Kit (Baxter AG, CH-8604 Volketswil/ZH) giving 4 mL fibrin matrix. TISSEEL® is produced from human derived pooled plasma and the content of active ingredients may vary from lot to lot within predefined ranges.
Matrix: A supplemented fibrin matrix containing granular material and PTH fusion peptide (TGplPTH1-34) was prepared using 3 separate syringes, a two-way syringe containing fibrin precursor solution and PTH fusion peptide (syringes 1 and 2) and two one-way syringes, one containing water and the other containing granules (syringes 3 and 4).
First the hydroxyapatite/calcium phosphate granules in syringe 4 were wetted by injection of the water of syringe 3. The fibrin precursor solution of syringe 1 (fibrinogen and TGplPTH1-34 suspended in a solution with aprotinin, a serine proteinase inhibitor which helps reduce fibrolysis to retain the integrity of the fibrin matrix) was mixed with the fibrin precursor solution of syringe 2 (thrombin in a calcium chloride solution). TGplPTH1-34 was formulated into the fibrinogen component to give a final concentration in the matrix varying from of 0.1 mg/mL to 10 mg/mL of the fibrin matrix and during the gelation process TGplPTH1-34 became crosslinked to the matrix. Fibrin precursor solutions also contained other components of fibrin matrix, such as plasma fibronectin, Factor XIIIa, plasminogen, and human albumin. When the precursor solutions are in equal volumes, a clotting process occurs to form fibrin. The clotting process takes place over several minutes which allows for the simultaneous injection of the mixed solutions into syringe 4, which contain the wetted granules. The matrix can then be introduced at the site of need where it solidifies. Enough matrix was placed in the defect to completely fill it.
Animals: A total of 42 Swiss Alpine, female sheep ranging between 44-83 kg (mean: 62.8 kg) and 2.25-4.75 years of age were chosen as experimental animals. Seven groups were formed with autografts as positive and fibrin matrix plus TCP granules as negative controls. The other groups consisted of the same fibrin matrix and TCP granules, but differed only in dosage of the TGplPTH1-34. Groups were followed for 12 weeks, when animals were sacrificed at a university-owned slaughter house. All animal experiments were conducted according to the Swiss laws of animal protection and welfare and were authorized by the local Ethical Committee and Veterinary Authorities.
Surgery: A medial approach to the tibia shaft was performed directly above the bone and extending from the distal aspect of the stifle to the hock joint, the medial fascia of the tibia was incised and the medial aspect of the tibia exposed without disturbing the periosteum. A 11 hole, 3.5 mm broad dynamic compression plate (Synthes) was contoured to the shaft with the distal end of the plate ending above the tibiotarsal joint. The plate was fixed to the bone using eleven 3.5 mm screws in a neutral position and distributing five screw holes distally and six proximally to the planned defect. The screws and plate were removed. Thereafter, the defect was marked on the bone with a scalpel blade using a gage ensuring a standardized 1 cm defect between the 5th and 6th screw hole. With an oscillating saw, the defect was cut under constant irrigation and preservation of soft tissues. The 1 cm segment including the circumferential periosteum was carefully removed and local bleeding out of the bone marrow or local soft tissue was stopped applying pressure with a gauze. The plate was repositioned and all screws reinserted before the matrix was filled into the bone gap as described above. Care was taken to distribute the matrix equally underneath the plate, on the lateral and as well as the transcortex.
For the positive autograft control group, autogenic bone was harvested through a local incision directly above the iliac crest. […]

[3] = Stability of PTH / TGPTH in buffer (spiked samples, direct ELISA); type: physicochemical; settings: 0.5 μg/mL; 37° C.; distilled water, phosphate buffer saline, tris-buffer saline
Protocol: For the first release assay a fibrin matrix of 50 μl with 0.1 mg PTH or TGPTH per ml fibrin matrix was incubated at 37° C. in 10 ml buffer. Therefore, the concentration of PTH or TGPTH in the buffer in case of a total release would be 0.5 μg PTH or TGPTH/mL fibrin matrix. In order to compare the stability of PTH or TGPTH during the assay, samples of PTH or TGPTH were diluted directly in the buffer to a concentration of 0.5 μg PTH or TGPTH/mL fibrin matrix. Different buffers were tested: distilled water, phosphate buffer saline, tris-buffer saline.
Aliquots were taken at days 0, 1, 2, 4 and 6 and analysed by direct ELISA. […] Therefore, no conclusion could be made on the release data. The PTH stability was certainly affected by its low concentration and the buffers that were not optimal.
The release experiment was repeated by using a stabilizing buffer containing 50 mM mannitol in a 10 mM sodium acetate buffer. In addition, the buffer was exchanged every 2 days in order to prevent any degradation of peptide. […] The concentration of PTH or TGPTH in the buffer in case of a total release would be 100 μg/mL fibrin matrix (200 times more than before). […] Samples were collected every 2 to 4 days (with a change of buffer) during 2 weeks and analysed by direct ELISA. […]

[4] = 1 mg TGplPTH1-34/mL fibrin matrix

Row | time stable in buffer [3] | Molecule | % healed at 6 months (Clinician's assessment) ([1]; 0.133 mg TGplPTH1-34/ml fibrin matrix + SoC) | % healed at 6 months (Clinician's assessment) ([1]; 0.4 mg TGplPTH1-34/ml fibrin matrix + SoC, p = 0.084 vs SoC alone) | % healed at 6 months (Clinician's assessment) ([1]; 1.0 mg TGplPTH1-34/ml fibrin matrix + SoC) | amount of endosteal bone formation (histomorphometry) [2, 4] | rate of granule resorption (histomorphometry) [2, 4] | animals showing bridging ([2]; 1 mg TGplPTH1-34/mL fibrin matrix, 8 weeks) | animals healed showing stable, clinical unions ([2]; 1 mg TGplPTH1-34/mL fibrin matrix, after 12 weeks) | animals showing bending of the plate ([2]; 1 mg TGplPTH1-34/mL fibrin matrix, within the first four weeks) | periosteal healing compared to negative control material ([2]; 0.4 and 1 mg TGplPTH1-34/mL fibrin matrix) | healing compared to autograft ([2]; 0.4 and 1 mg TGplPTH1-34/mL fibrin matrix, 12 weeks) | animals with unstable fracture site ([2]; 12 weeks, plate removed, movement/torsion of the limb, TGplPTH1-34 at 1 mg/mL fibrin matrix, FIG. 4) | periosteal healing response (radiographs) ([2]; doses between 0.4 and 2 mg TGplPTH1-34/mL fibrin matrix, every time point) | rates of endosteal bone formation and granule resorption ([2]; higher doses of TGplPTH1-34) | stability of the defect at the endpoint ([2]; higher doses than about 1 mg TGplPTH1-34/mL fibrin matrix, 12 weeks)
1 | – | NQEQVSPLYKNRSVSEIQLMHNLGKHLNSMERVEWLRKKLQDVHNF (Modified Parathyroid hormone (PHT), comprisig amino acids 1-34 of native PTH as well as a transglutaminase substrate domain and a plasmin-degradable sequence) [TGplPTH1-34] | 75.6% (34 of 45) | 80.4%* (37 of 46) | 69.2% (27 of 39) | higher than with the other concentrations of TGplPTH1-34 | highest resorption rate | one | 5 animals | one | statistically stronger periosteal healing | equivalent to autograft | one | much stronger periosteal healing response | lower rates of both endosteal bone formation and granule resorption | much lower stability
2 | ≤ 2 days | CC[C@H](C)[C@H](NC(=O)[C@H](CCC(=O)O)NC(=O)[C@H](CO)NC(=O)[C@@H](NC(=O)[C@@H](N)CO)C(C)C)C(=O)N[C@@H](CCC(N)=O)C(=O)N[C@@H](CC(C)C)C(=O)N[C@@H](CCSC)C(=O)N[C@@H](Cc1cnc[nH]1)C(=O)N[C@@H](CC(N)=O)C(=O)N[C@@H](CC(C)C)C(=O)NCC(=O)N[C@@H](CCCCN)C(=O)N[C@@H](Cc1cnc[nH]1)C(=O)N[C@@H](CC(C)C)C(=O)N[C@@H](CC(N)=O)C(=O)N[C@@H](CO)C(=O)N[C@@H](CCSC)C(=O)N[C@@H](CCC(=O)O)C(=O)N[C@@H](CCCN=C(N)N)C(=O)N[C@H](C(=O)N[C@@H](CCC(=O)O)C(=O)N[C@@H](Cc1c[nH]c2ccccc12)C(=O)N[C@@H](CC(C)C)C(=O)N[C@@H](CCCN=C(N)N)C(=O)N[C@@H](CCCCN)C(=O)N[C@@H](CCCCN)C(=O)N[C@@H](CC(C)C)C(=O)N[C@@H](CCC(N)=O)C(=O)N[C@@H](CC(=O)O)C(=O)N[C@H](C(=O)N[C@@H](Cc1cnc[nH]1)C(=O)N[C@@H](CC(N)=O)C(=O)N[C@@H](Cc1ccccc1)C(=O)O)C(C)C)C(C)C [PTH1-34] | – | – | – | – | – | – | – | – | – | – | – | – | – | –
